Data set [1] concerns Rattus norvegicus. The experiment in a line: Antiepileptic activity in Wistar rat assessed as protection against maximum electric shock-induced seizure at 30 mg/kg, po after 2 hrs. It counts as functional.
For data set [2], the system named is Rattus norvegicus. Briefly: Antiepileptic activity in Wistar rat assessed as protection against maximum electric shock-induced seizure at 30 mg/kg, po after 1 hr. It counts as functional.
The test system of data set [3] is Rattus norvegicus. The experiment in a line: Antiepileptic activity in Wistar rat assessed as protection against maximum electric shock-induced seizure at 30 mg/kg, po after 0.5 hrs. It counts as functional.
In data set [4] the test system is Mus musculus. The experiment in a line: Antiepileptic activity in ip dosed Swiss albino mouse assessed as protection against subcutaneous pentylenetetrazol-induced clonic seizures at 30 to 100 mg/kg, ip after 0.5 hrs. Particulars: sc, dose mg/kg 30-100, read-out: MED. It counts as functional.
The test system of data set [5] is Rattus norvegicus. Briefly: Antiepileptic activity in Wistar rat assessed as protection against maximum electric shock-induced seizure at 30 mg/kg, po after 0.25 hrs. It counts as functional.
In data set [6] the test system is Mus musculus. The experiment in a line: Neurotoxicity in Swiss albino mouse assessed as minimal motor impairment at 300 mg/kg, ip after 0.5 hrs by rotarod test. The arrangement: dose 300 mg/kg, route intraperitoneal. It counts as toxicity, organism-based. Particulars: in vivo.
Data set [7] concerns Mus musculus. The experiment in a line: Antiepileptic activity in Swiss albino mouse assessed as protection against maximum electric shock-induced seizure at 300 mg/kg, ip after 4 hrs. It counts as functional, organism-based. The arrangement: dose 300 mg/kg.
Data set [8] relates to Mus musculus. Briefly: Neurotoxicity in ip dosed Swiss albino mouse assessed as dose required for minimal motor impairment after 4 hrs by rotarod test. It counts as toxicity, organism-based. Particulars: in vivo.
The subject of data set [9] is Mus musculus. The experiment in a line: Antiepileptic activity in ip dosed Swiss albino mouse assessed as dose required to protect against subcutaneous pentylenetetrazol-induced clonic seizures after 4 hrs. It counts as functional. Particulars: read-out: MED.
Data set [10] relates to Mus musculus. The experiment in a line: Antiepileptic activity in ip dosed Swiss albino mouse assessed as dose required to protect against maximum electric shock-induced seizure after 0.5 hrs. It counts as functional. Particulars: read-out: MED.
The test system of data set [11] is Rattus norvegicus. The experiment in a line: Antiepileptic activity in Wistar rat assessed as protection against maximum electric shock-induced seizure at 30 mg/kg, po after 4 hrs. It counts as functional.
Data set [12] concerns Rattus norvegicus. Briefly: Neurotoxicity in Wistar rat assessed as minimal motor impairment at 30 mg/kg, po by rotarod method. It counts as toxicity, organism-based. The arrangement: dose 30 mg/kg, route oral. Particulars: in vivo.

The source made the active and inactive calls. No cut-off for these calls is given here.

For `O=C(/N=C/c1ccc(O)cc1)Nc1ccc2c(c1)C(=O)C(=O)N2CN1CCOCC1`, the Activity with Rattus norvegicus [1] was 0%; with Rattus norvegicus [2] it was 0%; in the data set on Rattus norvegicus [3] it was 0%; in the data set with Rattus norvegicus [5], 0%; with Mus musculus [6], “Non-toxic”; in the data set with Rattus norvegicus [11], 50%. The Activity entry in the data set on Rattus norvegicus [12] is given as “Non-toxic”. Further, the minimal effective dose in the data set on Mus musculus [4] is 30 mg/kg; in the data set on Mus musculus [9], 300 mg/kg; in the data set on Mus musculus [10] it was 300 mg/kg. The outcome in the data set with Mus musculus [7] was inactive. For the same compound, the MTC in the data set with Mus musculus [8] turned out to be 300 mg/kg.

(Values after ChEMBL document CHEMBL1914354, “Design, synthesis and antiepileptic properties of novel 1-(substituted benzylidene)-3-(1-(morpholino/piperidino methyl)-2,3-dioxoindolin-5-yl)urea derivatives” (Eur J Med Chem, 2011).)
